Patent publication US20240391899A1, “POTENT AND SELECTIVE INHIBITORS OF IRAK4” (Dana-Farber Cancer Institute, Inc., priority 2021, published 2024)

Key:
BCWM.1 = experiment: CellTiter-Glo Luminescent cell viability assay, BCWM.1; assay type: cell-based; details: BCWM1, BCWM.1 cell line, 72 hours at 37° C., read-out: ED50 (the source's name)
Protocol: (§1) The CellTiter-Glo® Luminescent cell viability assay (Promega, Madison WI) was used to assess the dose-response of inhibitors alone or in combination. Cells were seeded into 384 well plates with the EL406 Combination Washer Dispenser (BioTek Instruments, Inc.) and inhibitors were injected into culture media with the JANUS Automated Workstation (PerkinElmer Inc., Waltham MA). Cells were incubated with inhibitors for 72 hours at 37° C. Luminescent measurements to assess cell viability were performed using the 2104 Envision® Multilabel Reader (PerkinElmer Inc.). Drug interactions were assessed by CalcuSyn 2.0 software (Biosoft, Cambridge UK) based on Chou TC.

MWCL-1 = experiment: CellTiter-Glo Luminescent cell viability assay, MWCL-1; assay type: cell-based; details: MWCL-1 cell line, 72 hours at 37° C., read-out: ED50 (the source's name)
Protocol: as §1

TMD8 = experiment: CellTiter-Glo Luminescent cell viability assay, TMD8; assay type: cell-based; details: Homo sapiens, TMD8 cell line, 72 hours at 37° C., read-out: ED50 (the source's name)
Protocol: as §1

HBL-1 = experiment: CellTiter-Glo Luminescent cell viability assay, HBL-1; assay type: cell-based; details: HBL1, HBL-1 cell line, 72 hours at 37° C., read-out: ED50 (the source's name)
Protocol: as §1

OCI-Ly7 = experiment: CellTiter-Glo Luminescent cell viability assay, OCI-Ly7; assay type: cell-based; details: Homo sapiens, OCI-Ly7 cell line, 72 hours at 37° C., read-out: ED50 (the source's name)
Protocol: as §1

OCI-Ly19 = experiment: CellTiter-Glo Luminescent cell viability assay, OCI-Ly19; assay type: cell-based; details: Homo sapiens, OCI-Ly19 cell line, 72 hours at 37° C., read-out: ED50 (the source's name)
Protocol: as §1

RPMI-8226 = experiment: CellTiter-Glo Luminescent cell viability assay, RPMI-8226; assay type: cell-based; details: Homo sapiens, RPMI-8226 cell line, 72 hours at 37° C., read-out: ED50 (the source's name)
Protocol: as §1

SU-DHL-6 = experiment: CellTiter-Glo Luminescent cell viability assay, SU-DHL-6; assay type: cell-based; details: Homo sapiens, SU-DHL-6 cell line, 72 hours at 37° C., read-out: ED50 (the source's name)
Protocol: as §1

JeKo-1 = experiment: CellTiter-Glo Luminescent cell viability assay, JeKo-1; assay type: cell-based; details: Homo sapiens, JeKo-1 cell line, 72 hours at 37° C., read-out: ED50 (the source's name)
Protocol: as §1

IRAK4 = molecular target: T1, IRAK4 (Homo sapiens, UniProt Q9NWZ3); experiment: IRAK4 enzymatic assay (Z'-LYTE, ThermoFisher); assay type: biochemical; details: 60 minutes at room temperature
T1 construct: purchased ThermoFisher
T1 sequence (Q9NWZ3 1-460): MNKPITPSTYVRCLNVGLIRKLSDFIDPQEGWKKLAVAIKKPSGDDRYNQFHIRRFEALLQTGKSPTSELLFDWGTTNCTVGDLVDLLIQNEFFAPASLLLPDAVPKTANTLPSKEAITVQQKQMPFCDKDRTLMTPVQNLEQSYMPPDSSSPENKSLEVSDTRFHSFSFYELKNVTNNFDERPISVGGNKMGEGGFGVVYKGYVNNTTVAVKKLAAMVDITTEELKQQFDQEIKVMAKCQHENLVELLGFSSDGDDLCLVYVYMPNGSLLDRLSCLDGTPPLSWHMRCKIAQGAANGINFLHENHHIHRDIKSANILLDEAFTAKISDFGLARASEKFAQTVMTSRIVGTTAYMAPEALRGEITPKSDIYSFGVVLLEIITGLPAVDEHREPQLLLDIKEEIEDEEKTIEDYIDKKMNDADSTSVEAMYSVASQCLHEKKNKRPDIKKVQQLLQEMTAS
Protocol: To measure the IC50 values of compounds herein against IRAK4, a Z′-LYTE assay (ThermoFisher) was used. Briefly, 2.5 μL of different concentrations of the compounds in 1% DMSO were added to 2.4 μL kinase buffer (50 mM HEPES pH 7.5, 0.01% BRIJ-35, 10 mM MgCl2, 1 mM EGTA) in each well of a 384-well plate (Corning Cat. #3676). 5 μL of 2×IRAK4/Ser/Thr 07 mixture (prepared in 50 mM HEPES pH 7.5, 0.01% BRIJ-35, 10 mM MnCl2, 2 mM DTT, and 0.02% NaN3) and 2.5 μL of 4×ATP solution (4×ATP, 50 mM HEPES, pH 7.5, 0.01% BRIJ-35, 10 mM MgCl2, 1 mM EGTA) were added to each well. The plate was shaken for 30 seconds, and then incubated at room temperature for 60 minutes. 5 μL of a 1:100000 dilution of Development Reagent A was added to each well. The plate was shaken for 30 seconds and incubated for 60 minutes at room temperature. The plate was subsequently read on a fluorescence plate reader, and the emissions ratio was calculated to determine the ratio of Ser/Thr 07 phosphorylated by the reaction. Emissions Ratio=Coumarin Emission (443 nm)/Flourescein Emission (520 nm).

IRAK1 = molecular target: T2, IRAK1 (Homo sapiens, UniProt P51617); experiment: IRAK1 enzymatic assay (Adapta Universal Kinase Assay, ThermoFisher); assay type: biochemical; details: 60 minutes at room temperature
T2 construct: purchased ThermoFisher
T2 sequence (P51617 whole entry): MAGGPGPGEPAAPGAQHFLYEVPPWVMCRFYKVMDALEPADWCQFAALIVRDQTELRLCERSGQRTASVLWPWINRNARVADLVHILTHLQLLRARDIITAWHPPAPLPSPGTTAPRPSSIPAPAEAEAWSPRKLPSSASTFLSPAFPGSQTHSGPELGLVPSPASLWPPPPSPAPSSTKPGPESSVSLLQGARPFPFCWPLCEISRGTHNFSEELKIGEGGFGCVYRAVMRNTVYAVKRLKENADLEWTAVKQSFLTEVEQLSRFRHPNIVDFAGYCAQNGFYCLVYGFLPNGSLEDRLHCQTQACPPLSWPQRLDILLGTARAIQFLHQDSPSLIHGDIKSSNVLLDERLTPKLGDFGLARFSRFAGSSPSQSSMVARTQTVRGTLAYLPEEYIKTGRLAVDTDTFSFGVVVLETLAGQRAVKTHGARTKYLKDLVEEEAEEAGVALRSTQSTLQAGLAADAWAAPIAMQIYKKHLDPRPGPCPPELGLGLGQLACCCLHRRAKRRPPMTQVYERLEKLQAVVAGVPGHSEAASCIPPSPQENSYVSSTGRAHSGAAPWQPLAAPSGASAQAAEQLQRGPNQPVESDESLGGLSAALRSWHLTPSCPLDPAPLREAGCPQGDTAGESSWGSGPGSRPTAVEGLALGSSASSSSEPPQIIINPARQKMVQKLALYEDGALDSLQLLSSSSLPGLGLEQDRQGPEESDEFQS
Protocol: To measure the IC50 values of the compounds herein against IRAK1, the Adapta Universal Kinase Assay (ThermoFisher) was used. Briefly, 100 nL of different concentrations of the compounds in 100% DMSO were added to each well of a 384-well plate (Corning Cat. #4512). 2.4 μL of 30 mM HEPES, 2.5 μL of 4×ATP solution (in water), and 5 μL of 2×IRAK1/Histone H3 (1-20) peptide mixture (prepared in 50 mM HEPES pH 7.5, 0.01% BRIJ-35, 10 mM MgCl2, 1 mM EGTA) were added to each well. The plate was shaken for 30 seconds and centrifuged for 1 minute at 1000×g. The plate was then incubated at room temperature for 60 minutes. 5 μL of Detection Mix was added to each well. The plate was shaken for 30 seconds and centrifuged for 1 minute at 1000×g. The plate was then incubated at room temperature for 60 minutes. The plate was subsequently read on a fluorescence plate reader, and the emissions ratio was calculated to determine the ratio of ATP to ADP. Emissions Ratio=AF647 Emission (665 nm)/Europium Emission (615 nm).

Ramos = experiment: CellTiter-Glo Luminescent cell viability assay, Ramos; assay type: cell-based; details: Homo sapiens, Ramos cell line, 72 hours at 37° C., read-out: ED50 (the source's name)
Protocol: as §1

multiple cell lines = experiment: Cellular IRAK4 inhibitory activity screened across multiple cell lines; assay type: cell-based
Protocol: as §1, with “TC. Cellular IRAK4 inhibitory activities of compound 015 and two commercial IRAK4 inhibitors, CA-4948 and PF06650833, were screened across multiple cell lines.” for “TC.”

| SMILES | EC50 (BCWM.1) [µM] | EC50 (MWCL-1) [µM] | EC50 (TMD8) [µM] | EC50 (HBL-1) [µM] | EC50 (OCI-Ly7) [µM] | EC50 (OCI-Ly19) [µM] | EC50 (RPMI-8226) [µM] | EC50 (SU-DHL-6) [µM] | EC50 (JeKo-1) [µM] | IC50 (IRAK4) [µM] | IC50 (IRAK1) [µM] | EC50 (Ramos) [µM] | Potency compared with CA-4948 and PF06650833 (multiple cell lines) |
| --- | --- | --- | --- | --- | --- | --- | --- | --- | --- | --- | --- | --- | --- |
| Cc1cc(-c2nc(C(=O)Nc3cc4oc(N5CCOCC5)nc4nc3N3CC[C@@H](O)C3)co2)ccn1 [CA-4948] | 1.99 | 11.9 | 9.37 | 11.1 | 13 | 2.2 | 14 | 8.69 | 6.57 |  |  |  |  |
| Cc1ccc(-n2nc(C3CCN(C(C)C)CC3)cc2NC(=O)c2cccc(-c3cnn(CC(N)=O)c3)n2)nc1 [Compound 015, 6-(1-(2-amino-2-oxoethyl)-1H-pyrazol-4-yl)-N-(3-(1-isopropylpiperidin-4-yl)-1-(5-methylpyridin-2-yl)-1H-pyrazol-5-yl)picolinamide] | 3.33 | 6.92 | 3.92 | 2.2 | 3.11 | 1.22 | 6.78 | 1.72 | 6.26 | 0.009 | 0.45 | 0.362 | more potent in most cell lines |
| CC[C@@H]1[C@H](F)C(=O)N[C@@H]1COc1nccc2cc(C(N)=O)c(OC)cc12 [PF06650833] | 11 | 18.3 | 24.1 | 14.8 | 9.8 | 5.87 | 80.5 |  |  |  |  | 28.7 |  |
